In US9617256B2 (priority 2007, dated 2017):
Values after ≈ are worked out from the molar mass of the structure shown. Where two headings read alike, the source gives them in different places.

Legend:
[1] = system: AECO001 (ATCC25922); experiment: MIC broth microdilution, AECO001; type: cell-based, E. coli; conditions: for MIC: Escherichia coli
How it was run: (§1)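 Inocula prepared from 0.5 McFarland suspensions (final 3×10^5–7×10^5 CFU/mL) were added to 2-fold drug dilution series in cation-adjusted Mueller-Hinton broth. Plates stood 18-24 hours at 35° C. under ambient air.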

[2] = system: AECO063 (ATCC25922 bearing an acrAB mutation); experiment: microbe, parasite or virus in culture; type: cell-based, E. coli; conditions: Escherichia coli, ATCC25922, read-out: MIC AECO063
How it was run: as §1

[3] = system: APAE001 (ATCC27853); experiment: MIC broth microdilution, APAE001; type: cell-based, P. aeruginosa; conditions: Pseudomonas aeruginosa, ATCC27853, read-out: MIC APAE001, APAE001 (ATCC27853)
How it was run: as §1

[4] = system: APAE006 (strain of P. aeruginosa in which all efflux pumps are inactivated); experiment: microbe, parasite or virus in culture; type: cell-based; conditions: Pseudomonas aeruginosa, read-out: MIC APAE006, APAE006, all efflux pumps inactivated
How it was run: (§2)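 (ambient air) in cation-adjusted MHB; inoculum from 0.5 McFarland suspensions, final 3×10^5–7×10^5 CFU/mL; 2-fold serial drug dilutions per CLSI. APAE006: P. aeruginosa with all efflux pumps inactivated.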

[5] = system: APAE006 in the presence of 8 micrograms per milliliter of polymyxin B nonapeptide; type: cell-based, P. aeruginosa; conditions: APAE006 with 8 micrograms per milliliter polymyxin B nonapeptide
How it was run: as §2

[6] = system: AABA1060 (clinical isolate of Acinetobacter baumannii); experiment: MIC broth microdilution, AABA1060; type: cell-based; conditions: Acinetobacter baumannii, read-out: MIC AABA1060
How it was run: as §1

[7] = system: ASAU001 (laboratory strain of S. aureus, ATCC29213); experiment: MIC broth microdilution, ASAU001; type: cell-based; conditions: Staphylococcus aureus, ATCC29213, read-out: MIC ASAU001
How it was run: as §1

[8] = ATCC25922, read-out: MIC AECO001
[9] = ATCC25922, read-out: MIC AECO001 HSA AGP

Structure (SMILES) | MIC [1, 8] [µg/mL] | MIC [1, 9] [µg/mL] | Ratio of MICs on AECO001 [Cpd (A = —CHCH3NH2)/Cpd (A = —C(CH3)2NH2)] ([1]; MIC of paired compound with A = —CHCH3NH2 divided by MIC of compound with A = —C(CH3)2NH2, n=2 data, pairs identical except for the A moiety) | MIC [2] [µg/mL] | MIC [3] [µg/mL] | MIC [4] [µg/mL] | MIC APAE006 + PMBN [5] | MIC [6] [µg/mL] | MIC [7] [µg/mL]
CC(C)C#CC#Cc1ccc(C(=O)N[C@H](C(=O)NO)C(C)(C)N)cc1 [Example 91-15] | < 2 | 2 to 16 (≈ 5.86 to 46.9 µM) | 6.5 | < 2 | < 2 | < 2 | A (MIC's of 2.0 μg/mL or less = A) | < 2 | 2 to 16 (≈ 5.86 to 46.9 µM)
C[C@@H](O)[C@H](NC(=O)c1ccc(/C=C/C#Cc2ccccc2)cc1)C(=O)NO [Example 114-14] | < 2 | 2 to 16 (≈ 5.49 to 43.9 µM) |  | < 2 | 2 to 16 (≈ 5.49 to 43.9 µM) | < 2 | A (MIC's of 2.0 μg/mL or less = A) | < 2 | 16 to 64 (≈ 43.9 to 176 µM)
C[C@@H](O)[C@H](NC(=O)c1ccc(C#C/C=C/C2CC2)cc1)C(=O)NO [Example 107-3] | < 2 | 2 to 16 (≈ 6.09 to 48.7 µM) |  | < 2 | < 2 | < 2 | A (MIC's of 2.0 μg/mL or less = A) | 2 to 16 (≈ 6.09 to 48.7 µM) | 16 to 64 (≈ 48.7 to 195 µM)
CC(C)(N)[C@H](NC(=O)c1ccc(/C=C/C#Cc2ccccc2)cc1)C(=O)NO [Example 114-16] | < 2 | < 2 |  | < 2 | 2 to 16 (≈ 5.3 to 42.4 µM) | < 2 | A (MIC's of 2.0 μg/mL or less = A) | < 2 | 16 to 64 (≈ 42.4 to 170 µM)
C[C@@H](N)[C@H](NC(=O)c1ccc(C#CC#CCC2CCCC2)cc1)C(=O)NO [Example 91-25] | 16 to 64 (≈ 43.5 to 174 µM) | 16 to 64 (≈ 43.5 to 174 µM) |  | 16 to 64 (≈ 43.5 to 174 µM) | 16 to 64 (≈ 43.5 to 174 µM) | 2 to 16 (≈ 5.44 to 43.5 µM) | B (MIC's of greater than 2.0 μg/mL to 16.0 μg/mL = B) | 16 to 64 (≈ 43.5 to 174 µM) | 16 to 64 (≈ 43.5 to 174 µM)
CC(C)(O)[C@H](NC(=O)c1ccc(C#CC#Cc2cncnc2)cc1)C(=O)NO [Example 89-7] | 2 to 16 (≈ 5.29 to 42.3 µM) | 2 to 16 (≈ 5.29 to 42.3 µM) |  | < 2 | 2 to 16 (≈ 5.29 to 42.3 µM) | < 2 | A (MIC's of 2.0 μg/mL or less = A) | 16 to 64 (≈ 42.3 to 169 µM) | 16 to 64 (≈ 42.3 to 169 µM)
CCCC#CC#Cc1ccc(C(=O)N[C@H](C(=O)NO)[C@@H](C)N)cc1 [Example 91-8] | < 2 | 2 to 16 (≈ 6.11 to 48.9 µM) |  | < 2 | < 2 | < 2 | A (MIC's of 2.0 μg/mL or less = A) | 2 to 16 (≈ 6.11 to 48.9 µM) | 2 to 16 (≈ 6.11 to 48.9 µM)
C[C@@H](N)[C@H](NC(=O)c1ccc(C#Cc2ccc(NC(=O)CNC3CC3)cc2)cc1)C(=O)NO [Example 130-1, N-((1S,2R)-2-Amino-1-hydroxycarbamoyl-propyl)-4-[4-(2-cyclopropylamino-acetylamino)-phenylethynyl]-benzamide] | 2 to 16 (≈ 4.45 to 35.6 µM) | 16 to 64 (≈ 35.6 to 142 µM) |  | < 2 | < 2 | < 2 | A (MIC's of 2.0 μg/mL or less = A) | 2 to 16 (≈ 4.45 to 35.6 µM) | 16 to 64 (≈ 35.6 to 142 µM)
CC(C)(N)[C@H](NC(=O)c1ccc(C#CC#Cc2ccsc2)cc1)C(=O)NO [Example 88-15] | < 2 | < 2 |  | < 2 | < 2 | < 2 | A (MIC's of 2.0 μg/mL or less = A) | < 2 | 2 to 16 (≈ 5.24 to 41.9 µM)
CC(C)(O)[C@H](NC(=O)c1ccc(C#C/C=C/c2ccc(F)cc2)cc1)C(=O)NO [Example 106-7] | < 2 | 2 to 16 (≈ 5.05 to 40.4 µM) |  | < 2 | 2 to 16 (≈ 5.05 to 40.4 µM) | < 2 | A (MIC's of 2.0 μg/mL or less = A) | 2 to 16 (≈ 5.05 to 40.4 µM) | 16 to 64 (≈ 40.4 to 161 µM)
CC(C)(N)[C@H](NC(=O)c1ccc(/C=C/C#CC2CCCC2)cc1)C(=O)NO [Example 114-20] | < 2 | 2 to 16 (≈ 5.41 to 43.3 µM) |  | < 2 | 2 to 16 (≈ 5.41 to 43.3 µM) | < 2 | A (MIC's of 2.0 μg/mL or less = A) | < 2 | 2 to 16 (≈ 5.41 to 43.3 µM)
